Measurements as given in publication PMC7067653 (Bioorganic & medicinal chemistry letters, 2020).

Legend:
[1] = molecular target: human dopamine D1 receptor (Homo sapiens, UniProt P21728); experiment: Binding affinity at human dopamine D1 receptor; settings: amide versus aniline precursor
[2] = molecular target: T1, human serotonin 5-HT1A receptor (Homo sapiens, UniProt P08908); experiment: Binding affinity at human serotonin 5-HT1A receptor; settings: triplicate; na = not active (< 50% inhibition in a primary assay)
T1 sequence (P08908 1-422): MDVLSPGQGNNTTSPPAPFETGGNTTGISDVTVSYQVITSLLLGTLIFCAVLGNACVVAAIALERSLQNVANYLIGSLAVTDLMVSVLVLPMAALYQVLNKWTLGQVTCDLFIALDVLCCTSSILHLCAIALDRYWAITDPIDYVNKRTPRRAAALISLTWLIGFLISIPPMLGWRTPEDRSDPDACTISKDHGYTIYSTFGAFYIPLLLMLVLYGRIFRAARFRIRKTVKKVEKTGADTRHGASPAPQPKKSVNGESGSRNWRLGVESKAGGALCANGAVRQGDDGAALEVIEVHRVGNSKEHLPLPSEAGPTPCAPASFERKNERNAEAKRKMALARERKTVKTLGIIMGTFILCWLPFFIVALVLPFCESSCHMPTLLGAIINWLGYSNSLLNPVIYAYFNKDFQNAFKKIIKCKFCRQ

[3] = molecular target: human dopamine D2 receptor (Homo sapiens, UniProt P14416); experiment: Binding affinity at human dopamine D2 receptor; settings: triplicate; na = not active (< 50% inhibition in a primary assay)
Sequence of human dopamine D2 receptor (P14416 whole entry): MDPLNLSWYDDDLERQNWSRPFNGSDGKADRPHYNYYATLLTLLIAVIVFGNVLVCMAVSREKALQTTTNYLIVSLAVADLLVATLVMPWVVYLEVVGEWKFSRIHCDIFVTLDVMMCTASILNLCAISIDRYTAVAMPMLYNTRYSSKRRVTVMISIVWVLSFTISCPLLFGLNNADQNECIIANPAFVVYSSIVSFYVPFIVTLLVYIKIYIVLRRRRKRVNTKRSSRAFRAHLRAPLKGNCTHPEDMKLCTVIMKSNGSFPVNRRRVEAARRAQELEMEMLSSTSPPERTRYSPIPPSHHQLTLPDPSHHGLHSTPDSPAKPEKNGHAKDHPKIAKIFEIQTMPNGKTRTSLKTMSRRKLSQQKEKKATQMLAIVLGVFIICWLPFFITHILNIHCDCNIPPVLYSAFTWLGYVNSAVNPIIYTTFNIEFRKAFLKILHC

Sequence of human dopamine D1 receptor (P21728 whole entry): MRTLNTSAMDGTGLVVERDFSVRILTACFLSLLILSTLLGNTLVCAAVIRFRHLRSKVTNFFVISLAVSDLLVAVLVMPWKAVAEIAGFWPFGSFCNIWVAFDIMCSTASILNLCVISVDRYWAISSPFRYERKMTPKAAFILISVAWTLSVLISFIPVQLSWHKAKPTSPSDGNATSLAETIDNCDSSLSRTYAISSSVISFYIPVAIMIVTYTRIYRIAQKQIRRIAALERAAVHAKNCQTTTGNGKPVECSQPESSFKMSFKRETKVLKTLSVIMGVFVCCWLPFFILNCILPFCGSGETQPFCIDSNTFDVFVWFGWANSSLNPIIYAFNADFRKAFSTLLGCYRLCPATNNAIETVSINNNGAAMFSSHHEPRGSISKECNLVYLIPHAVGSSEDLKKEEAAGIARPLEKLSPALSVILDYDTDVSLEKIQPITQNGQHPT

SMILES | fold increase in D1 receptor affinity on N-acylation [1] | Ki 5-HT1A [2] | Ki D2 [3]
C#CCOc1c(OC)cc2c3c1-c1cc(NC(C)=O)ccc1CC3N(C)CC2 (stereo not shown) [Compound 20c] | ≤ 12 fold | – | –
C=CCOc1c(OC)cc2c3c1-c1cc(N)ccc1CC3N(C)CC2 (stereo not shown) [Compound 19d] | – | no affinity | –
C=CCOc1c(OC)cc2c3c1-c1cc(NC(C)=O)ccc1CC3N(C)CC2 (stereo not shown) [Compound 20b] | ≤ 12 fold | – | no D2 receptor affinity
